Measured values taken from PubChem BioAssay (NCI).
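Test compounds were applied to cells in 96-well plates for 48 hours at 5 doses. TGI: concentration producing complete growth inhibition.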

How the values were obtained:
Assay in all cases: NCI tumour cell line growth inhibition, 48 h
786-0 renal = test system: 786-0 renal
A549 NSCLC = test system: A549 NSCLC
ACHN renal = test system: ACHN renal
BT-549 breast = test system: BT-549 breast
CAKI-1 renal = test system: CAKI-1 renal
CCRF-CEM leukemia = test system: CCRF-CEM leukemia
COLO 205 colon = test system: COLO 205 colon
DU-145 prostate = test system: DU-145 prostate
EKVX NSCLC = test system: EKVX NSCLC
HCC-2998 colon = test system: HCC-2998 colon
HCT-116 colon = test system: HCT-116 colon
HCT-15 colon = test system: HCT-15 colon
HOP-62 NSCLC = test system: HOP-62 NSCLC
HOP-92 NSCLC = test system: HOP-92 NSCLC
HS 578T breast = test system: HS 578T breast
HT29 colon = test system: HT29 colon
IGROV1 ovarian = test system: IGROV1 ovarian
K-562 leukemia = test system: K-562 leukemia
KM12 colon = test system: KM12 colon
M14 melanoma = test system: M14 melanoma
MCF7 breast = test system: MCF7 breast
MDA-MB-231 breast = test system: MDA-MB-231 breast
MDA-MB-435 = test system: MDA-MB-435
MDA-N = test system: MDA-N
MOLT-4 leukemia = test system: MOLT-4 leukemia
NCI-H23 lung = test system: NCI-H23 lung
NCI-H460 lung = test system: NCI-H460 lung
NCI-H522 lung = test system: NCI-H522 lung
NCI/ADR-RES ovarian = test system: NCI/ADR-RES ovarian
OVCAR-3 ovarian = test system: OVCAR-3 ovarian
OVCAR-4 ovarian = test system: OVCAR-4 ovarian
OVCAR-5 ovarian = test system: OVCAR-5 ovarian
OVCAR-8 ovarian = test system: OVCAR-8 ovarian
PC-3 prostate = test system: PC-3 prostate
RPMI-8226 leukemia = test system: RPMI-8226 leukemia
RXF 393 renal = test system: RXF 393 renal
SF-268 CNS = test system: SF-268 CNS
SF-295 CNS = test system: SF-295 CNS
SF-539 CNS = test system: SF-539 CNS
SK-MEL-2 melanoma = test system: SK-MEL-2 melanoma
SK-MEL-28 melanoma = test system: SK-MEL-28 melanoma
SK-MEL-5 melanoma = test system: SK-MEL-5 melanoma
SK-OV-3 ovarian = test system: SK-OV-3 ovarian
SN12C renal = test system: SN12C renal
SNB-19 CNS = test system: SNB-19 CNS
SR leukemia = test system: SR leukemia
SW-620 colon = test system: SW-620 colon
U251 CNS = test system: U251 CNS
UACC-257 melanoma = test system: UACC-257 melanoma
UACC-62 melanoma = test system: UACC-62 melanoma
UO-31 renal = test system: UO-31 renal
A498 renal = test system: A498 renal
HL-60(TB) leukemia = test system: HL-60(TB) leukemia
LOX IMVI melanoma = test system: LOX IMVI melanoma
MALME-3M melanoma = test system: MALME-3M melanoma
NCI-H226 lung = test system: NCI-H226 lung
TK-10 renal = test system: TK-10 renal
SNB-75 CNS = test system: SNB-75 CNS

Compound: CC(=O)OCC1OC(N2C(=S)N[C@H]([C@@H](O)[C@H](O)[C@H](O)CO)[C@H]2O)C(OC(C)=O)C(OC(C)=O)C1OC(C)=O (stereo partly specified)
- TGI (786-0 renal): > 100 µM
- TGI (A549 NSCLC): > 100 µM
- TGI (ACHN renal): > 100 µM
- TGI (BT-549 breast): > 100 µM
- TGI (CAKI-1 renal): > 100 µM
- TGI (CCRF-CEM leukemia): > 100 µM
- TGI (COLO 205 colon): > 100 µM
- TGI (DU-145 prostate): > 100 µM
- TGI (EKVX NSCLC): > 100 µM
- TGI (HCC-2998 colon): > 100 µM
- TGI (HCT-116 colon): > 100 µM
- TGI (HCT-15 colon): > 100 µM
- TGI (HOP-62 NSCLC): > 100 µM
- TGI (HOP-92 NSCLC): > 100 µM
- TGI (HS 578T breast): > 100 µM
- TGI (HT29 colon): > 100 µM
- TGI (IGROV1 ovarian): > 100 µM
- TGI (K-562 leukemia): > 100 µM
- TGI (KM12 colon): > 100 µM
- TGI (M14 melanoma): > 100 µM
- TGI (MCF7 breast): > 100 µM
- TGI (MDA-MB-231 breast): > 100 µM
- TGI (MDA-MB-435): > 100 µM
- TGI (MDA-N): > 100 µM
- TGI (MOLT-4 leukemia): > 100 µM
- TGI (NCI-H23 lung): > 100 µM
- TGI (NCI-H460 lung): > 100 µM
- TGI (NCI-H522 lung): > 100 µM
- TGI (NCI/ADR-RES ovarian): > 100 µM
- TGI (OVCAR-3 ovarian): > 100 µM
- TGI (OVCAR-4 ovarian): > 100 µM
- TGI (OVCAR-5 ovarian): > 100 µM
- TGI (OVCAR-8 ovarian): > 100 µM
- TGI (PC-3 prostate): > 100 µM
- TGI (RPMI-8226 leukemia): > 100 µM
- TGI (RXF 393 renal): > 100 µM
- TGI (SF-268 CNS): > 100 µM
- TGI (SF-295 CNS): > 100 µM
- TGI (SF-539 CNS): > 100 µM
- TGI (SK-MEL-2 melanoma): > 100 µM
- TGI (SK-MEL-28 melanoma): > 100 µM
- TGI (SK-MEL-5 melanoma): > 100 µM
- TGI (SK-OV-3 ovarian): > 100 µM
- TGI (SN12C renal): > 100 µM
- TGI (SNB-19 CNS): > 100 µM
- TGI (SR leukemia): > 100 µM
- TGI (SW-620 colon): > 100 µM
- TGI (U251 CNS): > 100 µM
- TGI (UACC-257 melanoma): > 100 µM
- TGI (UACC-62 melanoma): > 100 µM
- TGI (UO-31 renal): > 100 µM

Compound: CC(=O)Nc1ccc(NNc2cc(=O)n(C)c(=O)[nH]2)cc1
- TGI (786-0 renal): 7.63 µM
- TGI (A498 renal): 49.1 µM
- TGI (A549 NSCLC): 34.7 µM
- TGI (ACHN renal): 11.4 µM
- TGI (BT-549 breast): 25.7 µM
- TGI (COLO 205 colon): 24 µM
- TGI (DU-145 prostate): 29.5 µM
- TGI (EKVX NSCLC): 31.5 µM
- TGI (HCC-2998 colon): 24 µM
- TGI (HCT-116 colon): 19.3 µM
- TGI (HCT-15 colon): 20.6 µM
- TGI (HL-60(TB) leukemia): 6.98 µM
- TGI (HOP-62 NSCLC): 30.4 µM
- TGI (HOP-92 NSCLC): 9.64 µM
- TGI (HS 578T breast): 53 µM
- TGI (HT29 colon): 4.71 µM
- TGI (IGROV1 ovarian): 27 µM
- TGI (K-562 leukemia): > 100 µM
- TGI (KM12 colon): 24.4 µM
- TGI (LOX IMVI melanoma): 5.72 µM
- TGI (M14 melanoma): 21.8 µM
- TGI (MALME-3M melanoma): 25.2 µM
- TGI (MCF7 breast): 19.5 µM
- TGI (MDA-MB-231 breast): 24.8 µM
- TGI (MDA-MB-435): 22.3 µM
- TGI (MDA-N): 23.7 µM
- TGI (MOLT-4 leukemia): > 100 µM
- TGI (NCI-H226 lung): 46 µM
- TGI (NCI-H23 lung): 31.1 µM
- TGI (NCI-H460 lung): 45.2 µM
- TGI (NCI/ADR-RES ovarian): 43.8 µM
- TGI (OVCAR-3 ovarian): 6.52 µM
- TGI (OVCAR-4 ovarian): 21.9 µM
- TGI (OVCAR-5 ovarian): 27.1 µM
- TGI (OVCAR-8 ovarian): 45.1 µM
- TGI (PC-3 prostate): 12.3 µM
- TGI (RPMI-8226 leukemia): 9.69 µM
- TGI (SF-295 CNS): 29.3 µM
- TGI (SF-539 CNS): 30.2 µM
- TGI (SK-MEL-28 melanoma): 24.2 µM
- TGI (SK-MEL-5 melanoma): 31.2 µM
- TGI (SN12C renal): 23.9 µM
- TGI (SNB-19 CNS): 31.6 µM
- TGI (SR leukemia): > 100 µM
- TGI (SW-620 colon): 7.56 µM
- TGI (TK-10 renal): 39 µM
- TGI (U251 CNS): 24 µM
- TGI (UACC-257 melanoma): 26.8 µM
- TGI (UO-31 renal): 31 µM

Compound: C/C=C\C(CC(=O)O)CN1CCC2=C(C1)C(S(=O)(=O)C(F)(F)F)c1ccccc12 (stereo unspecified)
- TGI (786-0 renal): > 100 µM
- TGI (A498 renal): > 100 µM
- TGI (A549 NSCLC): > 100 µM
- TGI (ACHN renal): > 100 µM
- TGI (BT-549 breast): > 100 µM
- TGI (CAKI-1 renal): > 100 µM
- TGI (COLO 205 colon): > 100 µM
- TGI (DU-145 prostate): > 100 µM
- TGI (EKVX NSCLC): > 100 µM
- TGI (HCC-2998 colon): > 100 µM
- TGI (HCT-116 colon): > 100 µM
- TGI (HCT-15 colon): > 100 µM
- TGI (HOP-62 NSCLC): > 100 µM
- TGI (HOP-92 NSCLC): > 100 µM
- TGI (HS 578T breast): > 100 µM
- TGI (HT29 colon): > 100 µM
- TGI (IGROV1 ovarian): > 100 µM
- TGI (K-562 leukemia): > 100 µM
- TGI (KM12 colon): > 100 µM
- TGI (M14 melanoma): > 100 µM
- TGI (MALME-3M melanoma): > 100 µM
- TGI (MCF7 breast): > 100 µM
- TGI (MDA-MB-231 breast): > 100 µM
- TGI (MDA-MB-435): > 100 µM
- TGI (MDA-N): > 100 µM
- TGI (MOLT-4 leukemia): > 100 µM
- TGI (NCI-H23 lung): > 100 µM
- TGI (NCI-H460 lung): > 100 µM
- TGI (NCI-H522 lung): > 100 µM
- TGI (NCI/ADR-RES ovarian): > 100 µM
- TGI (OVCAR-3 ovarian): > 100 µM
- TGI (OVCAR-4 ovarian): > 100 µM
- TGI (OVCAR-5 ovarian): > 100 µM
- TGI (OVCAR-8 ovarian): > 100 µM
- TGI (PC-3 prostate): > 100 µM
- TGI (RPMI-8226 leukemia): > 100 µM
- TGI (RXF 393 renal): > 100 µM
- TGI (SF-268 CNS): > 100 µM
- TGI (SF-295 CNS): > 100 µM
- TGI (SK-MEL-2 melanoma): > 100 µM
- TGI (SK-MEL-28 melanoma): > 100 µM
- TGI (SK-MEL-5 melanoma): > 100 µM
- TGI (SK-OV-3 ovarian): > 100 µM
- TGI (SNB-19 CNS): > 100 µM
- TGI (SNB-75 CNS): > 100 µM
- TGI (SR leukemia): > 100 µM
- TGI (SW-620 colon): > 100 µM
- TGI (U251 CNS): > 100 µM
- TGI (UACC-257 melanoma): > 100 µM
- TGI (UACC-62 melanoma): > 100 µM
- TGI (UO-31 renal): > 100 µM
